In assay [1] the target is T1, rat A1 (rA1) ARs (Rattus norvegicus, UniProt P25099).
T1 construct: using rat brain cortical membrane preparations for A1; tissue Pel Freez; host or cells: rat brain cortex membranes
T1 sequence (P25099 1-326): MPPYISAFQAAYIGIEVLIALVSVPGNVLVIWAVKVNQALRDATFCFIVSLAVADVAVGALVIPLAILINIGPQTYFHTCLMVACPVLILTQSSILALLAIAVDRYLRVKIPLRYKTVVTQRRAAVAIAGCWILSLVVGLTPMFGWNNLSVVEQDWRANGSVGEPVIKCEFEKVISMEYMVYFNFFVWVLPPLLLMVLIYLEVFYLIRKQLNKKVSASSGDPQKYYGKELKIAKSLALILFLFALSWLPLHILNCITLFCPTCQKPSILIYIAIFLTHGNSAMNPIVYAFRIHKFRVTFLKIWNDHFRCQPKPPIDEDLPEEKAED
The experiment in a line: Radioligand binding [3H]CCPA, rat brain cortical membranes. The conditions noted are these: read-out: rA1 [3H]CCPA Ki ± SEM. How it is done:
(§1) The final compounds were tested in radioligand binding assays to evaluate their affinity for all four ARs subtypes (see Table 2). Rat brain cortical membrane preparations were used as a source of rat A1 (rA1) ARs, and rat brain striatal membrane preparations served as a source of rat A2A (rA2A) ARs. For A2B- and A3AR assays, membrane preparations of Chinese hamster ovary (CHO) cells recombinantly expressing either human A2B (hA2B) or human A3 (hA3) ARs were employed.
(§2) Adenosine receptor radioligand binding assays were performed as previously described using rat brain cortical membrane preparations for A1 and rat brain striatal membrane preparations for A2A AR assays. Frozen rat brains (unstripped) were obtained from Pel Freez, Rogers, AR, USA. For assays at human AR subtypes, cell membranes of CHO cells recombinantly expressing the respective receptor were used. The following compounds were employed as radioligands: A1: [^3H]2-chloro-N^6-cyclopentyladenosine ([^3H]CCPA); A2A: [^3H]3-(3-hydroxypropyl)-7-methyl-8-(m-methoxystyryl)-1-propargylxanthine ([^3H]MSX-2); A2B: [^3H]8-(4-(4-(4-chlorophenyl)piperazine-1-sulfonyl)phenyl)-1-propylxanthine ([^3H]PSB-603); A3: [^3H]phenyl-8-ethyl-4-methyl-(8R)-4,5,7,8-tetrahydro-1H-imidazo[2,1-i]purine-5-one ([^3H]PSB-11). Initially, a single high concentration of compound was tested (1 µM). For potent compounds, full concentration–inhibition curves were determined using six to ten different concentrations of test compound spanning three orders of magnitude. At least three independent experiments were performed. Data were analyzed using GraphPad PRISM program version 4.0 or higher (Graph Pad, San Diego, CA, USA).

Assay [2] addresses T2, human A2B (hA2B) ARs (Homo sapiens, UniProt P29275).
T2 construct: expressed in transfected cells; host or cells: CHO cells (membranes)
T2 sequence (P29275 1-332): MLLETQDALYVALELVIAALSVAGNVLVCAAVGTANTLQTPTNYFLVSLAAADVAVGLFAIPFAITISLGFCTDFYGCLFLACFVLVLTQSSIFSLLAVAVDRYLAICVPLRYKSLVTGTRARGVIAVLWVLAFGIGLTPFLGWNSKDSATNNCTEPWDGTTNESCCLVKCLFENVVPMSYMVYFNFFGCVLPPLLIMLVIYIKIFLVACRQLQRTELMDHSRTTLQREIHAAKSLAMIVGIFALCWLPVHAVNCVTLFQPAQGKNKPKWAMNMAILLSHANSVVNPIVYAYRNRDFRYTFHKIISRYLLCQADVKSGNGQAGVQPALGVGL
The experiment in a line: Radioligand binding [3H]PSB-603, CHO cell membranes. As to conditions: for Ki: CHO cell membranes, read-out: hA2B [3H]PSB-603 Ki ± SEM; for inhibition at 1 µM: read-out: hA2B [3H]PSB-603 % inhibition ± SEM at 1 µM. How it is done: as §1, §2

Assay [3] deals with T3, rat D1 receptor (Rattus norvegicus, UniProt P18901).
T3 construct: source of native rat D1 receptor protein; from tissue; host or cells: rat striatum (methods) / rat brain cortical membranes
T3 sequence (P18901 whole entry): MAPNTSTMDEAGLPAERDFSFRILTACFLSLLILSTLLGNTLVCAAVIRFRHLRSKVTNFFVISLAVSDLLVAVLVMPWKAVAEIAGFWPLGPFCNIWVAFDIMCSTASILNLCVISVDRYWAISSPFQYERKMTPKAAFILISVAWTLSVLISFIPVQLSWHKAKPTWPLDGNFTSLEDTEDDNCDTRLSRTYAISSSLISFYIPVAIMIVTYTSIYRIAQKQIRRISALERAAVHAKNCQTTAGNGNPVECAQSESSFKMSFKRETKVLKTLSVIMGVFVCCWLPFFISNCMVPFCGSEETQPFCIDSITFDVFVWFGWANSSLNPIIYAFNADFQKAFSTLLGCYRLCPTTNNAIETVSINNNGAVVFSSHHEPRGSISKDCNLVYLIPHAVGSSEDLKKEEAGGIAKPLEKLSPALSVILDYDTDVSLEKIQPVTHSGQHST
The experiment in a line: Radioligand binding [3H]SCH23390, rat brain tissue. As to conditions: for Ki: native rat D1 receptor, read-out: rD1 [3H]SCH23390 Ki ± SEM; for inhibition at 1 µM: read-out: rD1 [3H]SCH23390 % inhibition ± SEM at 1 µM. How it is done:
Rat brain cortical membranes were used as source of native rat D1 receptor protein, and human D2 receptor was recombinantly expressed in HEK293 cells.
Rat striatum tissue was thawed in 50 volumes of ice-cold 50 mM potassium phosphate buffer, pH 7.4, homogenized and centrifuged at 20,000× g for 20 min. The resulting pellet was resuspended in the same quantity of the buffer and centrifuged again for 20 min. Binding experiments were conducted in 96-well microplates in a total volume of 250 μL of appropriate buffers. Reaction mix included 50 μL solution of test compound, 50 μL of radioligand, and 150 μL of tissue suspension (3 mg/mL). [^3H]SCH23390 (spec. act. 81.9 Ci/mmol, PerkinElmer, NET 930) was used for labeling the D1-receptor. For measuring unspecific binding, cis(Z)flupentixol—5 μM was applied. Samples were incubated at 30 °C for 60 min. The incubation was terminated by rapid filtration over glass fiber filters GF/B using a Harvester (PerkinElmer, USA). The radioactivity was measured in MicroBeta TriLux 1450—liquid scintillation counter (PerkinElmer). Each compound was tested in a screening assay in duplicate at final concentrations of 1 µM. Results were expressed as a percent of inhibition of specific binding.

The target in assay [4] is T4, human PDE10A1 (Homo sapiens, UniProt Q9Y233).
T4 construct: purchased BPS Biosciences
T4 sequence (Q9Y233 1-779 isoform Q9Y233-1): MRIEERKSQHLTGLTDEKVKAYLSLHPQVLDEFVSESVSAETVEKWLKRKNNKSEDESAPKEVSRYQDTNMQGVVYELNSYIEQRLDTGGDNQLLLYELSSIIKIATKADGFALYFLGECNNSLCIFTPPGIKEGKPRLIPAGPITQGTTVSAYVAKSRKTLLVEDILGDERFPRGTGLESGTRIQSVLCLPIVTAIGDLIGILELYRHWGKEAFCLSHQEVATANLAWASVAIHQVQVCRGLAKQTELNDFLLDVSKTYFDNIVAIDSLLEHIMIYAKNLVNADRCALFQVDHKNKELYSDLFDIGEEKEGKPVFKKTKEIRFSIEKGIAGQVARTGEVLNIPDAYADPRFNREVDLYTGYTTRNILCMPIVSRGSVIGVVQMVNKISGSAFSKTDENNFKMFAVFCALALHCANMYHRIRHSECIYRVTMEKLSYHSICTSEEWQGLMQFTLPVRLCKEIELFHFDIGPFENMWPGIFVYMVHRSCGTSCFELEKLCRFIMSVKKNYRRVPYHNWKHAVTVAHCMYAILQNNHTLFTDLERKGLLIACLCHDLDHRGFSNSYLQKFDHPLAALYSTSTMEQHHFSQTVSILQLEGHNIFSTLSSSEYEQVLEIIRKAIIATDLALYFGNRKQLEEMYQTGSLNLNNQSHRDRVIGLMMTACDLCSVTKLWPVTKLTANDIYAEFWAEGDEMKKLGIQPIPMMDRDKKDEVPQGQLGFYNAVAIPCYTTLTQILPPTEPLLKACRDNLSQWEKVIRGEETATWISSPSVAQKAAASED
The experiment in a line: PDElight HTS cAMP phosphodiesterase assay, PDE10A1. As to conditions: for IC50: read-out: PDE 10A1 IC50 ± SEM; for inhibition at 10 µM: read-out: PDE 10A1 % Inhibition ± SEM at 10 µM. Format: biochemical. How it is done:
Further biological evaluation of the presented compound library was performed determining inhibitory potencies against selected human PDE isoforms, namely, PDE4 and PDE10 (for results see Table 3).
Tested and reference compounds were dissolved in dimethyl sulfoxide (DMSO) at a concentration of 10 mM and further diluted in assay buffer (10 mM Tris-HCl, 10 mM magnesium chloride and 0.05% Tween-20; pH 7.4). Inhibition of human PDE10A and 4B1 was measured using PDElight HTS cAMP phosphodiesterase assay kit (Lonza, Basel, Switzerland) according to manufacturer’s recommendations. Then, 10 ng of PDE10A and 5 ng of PDE4B1 (BPS Biosciences, San Diego, CA, USA) in appropriate buffer was incubated with reference and tested compound for 20 min. […] Then PDELight AMP Detection Reagent was added and incubated 10 min. All reactions were carried out at 37 °C in 96 white-walled, half-area-well plates (PerkinElmer). Luminescence was measured in a multifunction plate reader (POLARstar Omega, BMG Labtech, Ortenberg, Germany). The percentage of inhibition and IC50s were computed using GraphPad Prism Version 6.0 software.

Molecules are shown by their SMILES. Bounds are passed on as bounds.

For orientation: Ki means the dissociation constant of the complex between target and ligand, obtained from inhibition or displacement. For orientation: inhibition means the change of the read-out against control, counted positive when it falls. The term IC50 denotes the concentration at which inhibition is half-maximal. Consider `Cn1c(=O)c2c(nc(NCCc3ccc(O)c(O)c3)n2C)n(C)c1=O` [Compound 11a, 8-((3,4-Dihydroxyphenethyl)amino)-1,3,7-trimethyl-3,7-dihydro-1H-purine-2,6-dione], for which the Ki is 1980 ± 290 nM in assay [1], more than 1000 nM in assay [2] and more than 1000 nM in assay [3]. In addition, the inhibition at 1 µM in assay [2] was found to be 20%; in assay [3], 13%. For the same compound, the IC50 in assay [4] turned out to be 15100 ± 3100 nM.

With `CCn1c(NCCc2ccc(O)c(O)c2)nc2c1c(=O)n(C)c(=O)n2C` [Compound 11b, 8-((3,4-Dihydroxyphenethyl)amino)-7-ethyl-1,3-dimethyl-3,7-dihydro-1H-purine-2,6-dione], the values for the Ki in assay [1], in assay [2] and in assay [3] were 479 ± 95 nM, more than 1000 nM and more than 1000 nM, respectively. The inhibition at 1 µM was -2% in assay [2] and 15% in assay [3]. Also, in assay [4], the IC50 is 4630 ± 1250 nM.

For `CCCn1c(NCCc2ccc(O)c(O)c2)nc2c1c(=O)n(C)c(=O)n2C` [Compound 11c, 8-((3,4-Dihydroxyphenethyl)amino)-1,3-dimethyl-7-propyl-3,7-dihydro-1H-purine-2,6-dione], the values for the Ki in assay [1], in assay [2] and in assay [3] were 730 ± 93 nM, more than 1000 nM and more than 1000 nM, respectively. The inhibition at 1 µM is 6% in assay [2] and 9% in assay [3]. Moreover, the IC50 in assay [4] was 3450 ± 270 nM.

Consider `CC(C)n1c(NCCc2ccc(O)c(O)c2)nc2c1c(=O)n(C)c(=O)n2C` [Compound 11d, 8-((3,4-Dihydroxyphenethyl)amino)-7-isopropyl-1,3-dimethyl-3,7-dihydro-1H-purine-2,6-dione], for which the Ki is 857 ± 43 nM in assay [1], more than 1000 nM in assay [2] and more than 1000 nM in assay [3]. For the same compound, the inhibition at 1 µM came out at 13% in assay [2] and 15% in assay [3]. For the same compound, the IC50 in assay [4] is 2300 ± 640 nM.

For `CCCCn1c(NCCc2ccc(O)c(O)c2)nc2c1c(=O)n(C)c(=O)n2C` [Compound 11e, 7-Butyl-8-((3,4-dihydroxyphenethyl)amino)-1,3-dimethyl-3,7-dihydro-1H-purine-2,6-dione], the Ki was 304 ± 66 nM in assay [1], more than 1000 nM in assay [2] and more than 1000 nM in assay [3]. For the same compound, the inhibition at 1 µM in assay [2] came out at 14%; in assay [3], 13%. Also, the IC50 in assay [4] was found to be 3770 ± 1290 nM.

Turning to `CC(C)Cn1c(NCCc2ccc(O)c(O)c2)nc2c1c(=O)n(C)c(=O)n2C` [Compound 11f, 8-((3,4-Dihydroxyphenethyl)amino)-7-isobutyl-1,3-dimethyl-3,7-dihydro-1H-purine-2,6-dione], the Ki in assay [1] is 1130 ± 180 nM; in assay [2], more than 1000 nM; in assay [3] it was more than 1000 nM. Also, the results for the inhibition at 1 µM in assay [2] and in assay [3] were 1% and 15%, respectively. The inhibition at 10 µM in assay [4] is 59%.

In the case of `CCC(C)n1c(NCCc2ccc(O)c(O)c2)nc2c1c(=O)n(C)c(=O)n2C` (stereo not shown) [Compound 11g, 7-(Sec-butyl)-8-((3,4-dihydroxyphenethyl)amino)-1,3-dimethyl-3,7-dihydro-1H-purine-2,6-dione], the Ki is 1170 ± 380 nM in assay [1], more than 1000 nM in assay [2] and more than 1000 nM in assay [3]. Besides, the inhibition at 1 µM in assay [2] was -5%; in assay [3], 11%. In assay [4], the IC50 is 10200 ± 900 nM.

For the compound `CCCCCn1c(NCCc2ccc(O)c(O)c2)nc2c1c(=O)n(C)c(=O)n2C` [Compound 11h, 8-((3,4-Dihydroxyphenethyl)amino)-1,3-dimethyl-7-pentyl-3,7-dihydro-1H-purine-2,6-dione], the Ki in assay [1] is 191 ± 30 nM; in assay [2], more than 1000 nM; in assay [3], more than 1000 nM. Also, the inhibition at 1 µM in assay [2] and in assay [3] was 12% throughout. Also, the inhibition at 10 µM in assay [4] is 51%. Also, the IC50 in assay [4] was not below 10000 nM.
